Assays:
Type in all cases: in vivo
[1] = test system: barnyardgrass (Echinochloa crus-galli); assay: Test B flooded paddy test plant response
In short: (§1)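 Step one: raise plants to 2 leaves. Step two: flood pots 3 cm over the soil and apply compound into the water, keeping this depth. Step three: after 13–15 greenhouse days, score visually versus controls, 0–100, where 100 means complete control.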

[2] = test system: ducksalad (Heteranthera limosa); assay: Test B flooded paddy test plant response; settings: Flood (flooded paddy test), scale 0 to 100, 0 no effect, 100 complete control
In short: as §1

[3] = test system: umbrella sedge (Cyperus difformis); assay: Test B flooded paddy test plant response
In short: as §1

[4] = test system: Italian ryegrass (Lolium multiflorum); assay: Test C pre-/postemergence plant response
In short: (§2)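 Ratings ran from 0 (no effect) to 100 (complete control) and were made visually against untreated controls 15–25 days after treatment in a controlled growth environment. Application was preemergence and, for some chemicals, postemergence at the 1- to 4-leaf stage (2–18 cm). Formulation was a non-phytotoxic solvent mixture with surfactant.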

[5] = test system: annual bluegrass (Poa annua); assay: Test C pre-/postemergence plant response
In short: as §2

[6] = test system: blackgrass (Alopecurus myosuroides); assay: Test C pre-/postemergence plant response
In short: as §2

[7] = test system: canarygrass (Phalaris minor); assay: Test C pre-/postemergence plant response
In short: as §2

[8] = test system: downy bromegrass (Bromus tectorum); assay: Test C pre-/postemergence plant response
In short: as §2

[9] = test system: green foxtail (Setaria viridis); assay: Test C pre-/postemergence plant response
In short: as §2

[10] = test system: pigweed (Amaranthus retroflexus); assay: Test C pre-/postemergence plant response
In short: as §2

[11] = test system: spring barley (Hordeum vulgare); assay: Test C pre-/postemergence plant response
In short: as §2

[12] = test system: spring wheat (Triticum aestivum); assay: Test C pre-/postemergence plant response
In short: as §2

[13] = test system: wild mustard (Sinapis arvensis); assay: Test C pre-/postemergence plant response
In short: as §2

wild oat (Avena fatua) = assay: Test C pre-/postemergence plant response
In short: as §2

[14] = test system: windgrass (Apera spica-venti); assay: Test C pre-/postemergence plant response
In short: as §2

[15] = test system: winter wheat (Triticum aestivum); assay: Test C pre-/postemergence plant response
In short: as §2

[16] = Flood (flooded paddy test), 62 g ai/ha, scale 0 to 100, 0 no effect, 100 complete control
[17] = Flood (flooded paddy test), 125 g ai/ha, scale 0 to 100, 0 no effect, 100 complete control
[18] = Flood (flooded paddy test), 250 g ai/ha, scale 0 to 100, 0 no effect, 100 complete control
[19] = Flood, 31 g ai/ha, scale 0 to 100
[20] = Postemergence, 8 g ai/ha, scale 0 to 100, 0 no effect, 100 complete control
[21] = Postemergence, 16 g ai/ha, scale 0 to 100, 0 no effect, 100 complete control
[22] = Postemergence, 31 g ai/ha, scale 0 to 100, 0 no effect, 100 complete control
[23] = Postemergence, 62 g ai/ha, scale 0 to 100, 0 no effect, 100 complete control
[24] = Preemergence, 8 g ai/ha, scale 0 to 100 (0 no effect, 100 complete control)
[25] = Preemergence, 16 g ai/ha, scale 0 to 100 (0 no effect, 100 complete control)
[26] = Preemergence, 31 g ai/ha, scale 0 to 100 (0 no effect, 100 complete control)
[27] = Preemergence, 62 g ai/ha, scale 0 to 100, 0 no effect, 100 complete control

## Cc1cc(-c2ccc(C(F)(F)F)c(F)c2)nn1-c1c(O)c(C(F)(F)F)nn(C)c1=O [Compound 44]
[1]; [16]
  Plant response rating, Barnyardgrass: 0
[1]; [17]
  Plant response rating, Barnyardgrass: 30
[1]; [18]
  Plant response rating, Barnyardgrass: 50
[1]; [19]
  Plant response rating, Barnyardgrass: 0
[2]; 62 g ai/ha
  Plant response rating, Ducksalad: 0
[2]; 125 g ai/ha
  Plant response rating, Ducksalad: 70
[2]; 250 g ai/ha
  Plant response rating, Ducksalad: 70
[3]; [16]
  Plant response rating, Sedge, Umbrella: 0
[3]; [17]
  Plant response rating, Sedge, Umbrella: 20
[3]; [18]
  Plant response rating, Sedge, Umbrella: 30
[3]; [19]
  Plant response rating, Sedge, Umbrella: 0
[4]; [20]
  Plant response rating, Ryegrass, Italian: 90
[4]; [21]
  Plant response rating, Ryegrass, Italian: 98
[4]; [22]
  Plant response rating, Ryegrass, Italian: 100
[4]; [23]
  Plant response rating, Ryegrass, Italian: 100
[4]; [24]
  Plant response rating, Ryegrass, Italian: 90
[4]; [25]
  Plant response rating, Ryegrass, Italian: 100
[4]; [26]
  Plant response rating, Ryegrass, Italian: 100
[4]; [27]
  Plant response rating, Ryegrass, Italian: 100
[5]; [20]
  Plant response rating, Bluegrass: 0
[5]; [21]
  Plant response rating, Bluegrass: 0
[5]; [22]
  Plant response rating, Bluegrass: 0
[5]; [23]
  Plant response rating, Bluegrass: 0
[5]; [24]
  Plant response rating, Bluegrass: 0
[5]; [25]
  Plant response rating, Bluegrass: 0
[5]; [26]
  Plant response rating, Bluegrass: 0
[5]; [27]
  Plant response rating, Bluegrass: 0
[6]; [20]
  Plant response rating, Blackgrass: 90
[6]; [21]
  Plant response rating, Blackgrass: 98
[6]; [22]
  Plant response rating, Blackgrass: 100
[6]; [23]
  Plant response rating, Blackgrass: 100
[6]; [25]
  Plant response rating, Blackgrass: 25
[6]; [26]
  Plant response rating, Blackgrass: 100
[6]; [27]
  Plant response rating, Blackgrass: 100
[7]; [20]
  Plant response rating, Canarygrass: 75
[7]; [21]
  Plant response rating, Canarygrass: 80
[7]; [22]
  Plant response rating, Canarygrass: 90
[7]; [23]
  Plant response rating, Canarygrass: 100
[7]; [24]
  Plant response rating, Canarygrass: 30
[7]; [25]
  Plant response rating, Canarygrass: 65
[7]; [26]
  Plant response rating, Canarygrass: 75
[7]; [27]
  Plant response rating, Canarygrass: 85
[8]; [20]
  Plant response rating, Bromegrass, Downy: 15
[8]; [21]
  Plant response rating, Bromegrass, Downy: 40
[8]; [22]
  Plant response rating, Bromegrass, Downy: 65
[8]; [23]
  Plant response rating, Bromegrass, Downy: 75
[8]; [24]
  Plant response rating, Bromegrass, Downy: 0
[8]; [25]
  Plant response rating, Bromegrass, Downy: 20
[8]; [26]
  Plant response rating, Bromegrass, Downy: 50
[8]; [27]
  Plant response rating, Bromegrass, Downy: 80
[9]; [20]
  Plant response rating, Foxtail, Green: 50
[9]; [21]
  Plant response rating, Foxtail, Green: 95
[9]; [22]
  Plant response rating, Foxtail, Green: 98
[9]; [23]
  Plant response rating, Foxtail, Green: 100
[9]; [24]
  Plant response rating, Foxtail, Green: 15
[9]; [25]
  Plant response rating, Foxtail, Green: 90
[9]; [26]
  Plant response rating, Foxtail, Green: 100
[9]; [27]
  Plant response rating, Foxtail, Green: 100
[10]; [20]
  Plant response rating, Pigweed: 0
[10]; [21]
  Plant response rating, Pigweed: 0
[10]; [22]
  Plant response rating, Pigweed: 0
[10]; [23]
  Plant response rating, Pigweed: 0
[10]; [24]
  Plant response rating, Pigweed: 0
[10]; [25]
  Plant response rating, Pigweed: 20
[10]; [26]
  Plant response rating, Pigweed: 20
[10]; [27]
  Plant response rating, Pigweed: 20
[11]; [20]
  Plant response rating, Barley, Spring: 60
[11]; [21]
  Plant response rating, Barley, Spring: 95
[11]; [22]
  Plant response rating, Barley, Spring: 95
[11]; [23]
  Plant response rating, Barley, Spring: 98
[11]; [24]
  Plant response rating, Barley, Spring: 0
[11]; [25]
  Plant response rating, Barley, Spring: 60
[11]; [26]
  Plant response rating, Barley, Spring: 60
[11]; [27]
  Plant response rating, Barley, Spring: 75
[12]; [20]
  Plant response rating, Wheat, Spring: 70
[12]; [21]
  Plant response rating, Wheat, Spring: 95
[12]; [22]
  Plant response rating, Wheat, Spring: 95
[12]; [23]
  Plant response rating, Wheat, Spring: 100
[12]; [24]
  Plant response rating, Wheat, Spring: 0
[12]; [25]
  Plant response rating, Wheat, Spring: 20
[12]; [26]
  Plant response rating, Wheat, Spring: 70
[12]; [27]
  Plant response rating, Wheat, Spring: 75
[13]; [20]
  Plant response rating, Mustard, Wild: 0
[13]; [21]
  Plant response rating, Mustard, Wild: 0
[13]; [22]
  Plant response rating, Mustard, Wild: 0
[13]; [23]
  Plant response rating, Mustard, Wild: 0
[13]; [24]
  Plant response rating, Mustard, Wild: 0
[13]; [25]
  Plant response rating, Mustard, Wild: 0
[13]; [26]
  Plant response rating, Mustard, Wild: 0
Wild oat (Avena fatua); [20]
  Plant response rating, Oat, Wild: 100
Wild oat (Avena fatua); [21]
  Plant response rating, Oat, Wild: 100
Wild oat (Avena fatua); [22]
  Plant response rating, Oat, Wild: 100
Wild oat (Avena fatua); [23]
  Plant response rating, Oat, Wild: 100
Wild oat (Avena fatua); [24]
  Plant response rating, Oat, Wild: 50
Wild oat (Avena fatua); [25]
  Plant response rating, Oat, Wild: 75
Wild oat (Avena fatua); [26]
  Plant response rating, Oat, Wild: 80
Wild oat (Avena fatua); [27]
  Plant response rating, Oat, Wild: 90
[14]; [20]
  Plant response rating, Windgrass: 50
[14]; [21]
  Plant response rating, Windgrass: 90
[14]; [22]
  Plant response rating, Windgrass: 95
[14]; [23]
  Plant response rating, Windgrass: 100
[14]; [24]
  Plant response rating, Windgrass: 100
[14]; [25]
  Plant response rating, Windgrass: 100
[14]; [26]
  Plant response rating, Windgrass: 100
[14]; [27]
  Plant response rating, Windgrass: 100
[15]; [20]
  Plant response rating, Wheat, Winter: 75
[15]; [21]
  Plant response rating, Wheat, Winter: 80
[15]; [22]
  Plant response rating, Wheat, Winter: 95
[15]; [23]
  Plant response rating, Wheat, Winter: 98
[15]; [24]
  Plant response rating, Wheat, Winter: 40
[15]; [25]
  Plant response rating, Wheat, Winter: 65
[15]; [27]
  Plant response rating, Wheat, Winter: 70

— patent US20100267561A1, “HERBICIDAL PYRIDAZINONE DERIVATIVES” (priority 2007, published 2010)
